Data set [1] can be described thus: Cytotoxicity assay in stimulated PBMCs (ATP, CellTiter-Glo). Particulars: PBMCs stimulated with PHA and IL-2, ATP quantification. In kind it is cell-based. As for the experimental part: SupT1 cells were plated at 100,000 per well in 96-well, white-walled plates with serial dilutions of test compound in a total volume of 100 μl RPMI-1640 medium containing 10% FBS and 0.5% DMSO. PBMCs were plated similarly at 50,000 cells/well and stimulated by addition of 40 μg/ml PHA and 80 ng/ml interleukin-2 (IL-2). Cells were incubated for 72 h at 37°C, 5% CO2. ATP was quantified using the CellTiter-Glo Luminescent Cell Viability Assay (Promega, Madison, WI) on a ViewLux microplate imager (Perkin Elmer, Waltham, MA). Percent cytotoxicity was determined relative to vehicle-only treated wells.

A further data set concerns HIV-1 LTR. The experiment in a line: HIV LTR-driven Rluc reporter in HeLa cells. Particulars: transfected HeLa cells, 24 h. The class given is cell-based. An excerpt:
The vector pGL4.77[hRlucP/Hygro] encoding a Renilla luciferase gene including a PEST destabilization sequence, was purchased from Promega (Madison, WI). HIV-1 cDNA was generated from HIVIIIB virus using PureLink® Viral RNA/DNA Mini Kit (Invitrogen). The HIV-1 core promoter region (nucleotides -105 to 60) was amplified from HIVIIIB cDNA using primers designed with NheI (forward: 5ʹ-GCTAGCGGGACTTTCCGCTGGG-3ʹ) and XhoI (reverse: 5ʹ-CTCGAGAGTGGGTTCCCTAGTTAGCCA-3ʹ) flanking restriction site sequences. DNA fragments were generated using Platinum® Taq DNA Polymerase High Fidelity (Invitrogen) and fragment size was verified by electrophoresis using E-Gel® 1.2% agarose (Invitrogen). Fragments were cloned into pCR™2.1 TOPO® (Invitrogen), transformed into One Shot® TOP10 Chemically Competent E. coli (Invitrogen), and selected on LB-agar plates containing 100 μg/ml ampicillin. Individual colonies were grown in LB broth, DNA was isolated using QIAprep® Spin Miniprep Kit (Qiagen), and the inserted fragment was verified by EcoRI digestion followed by electrophoresis using E-Gel® 1.2% agarose (Invitrogen). To insert the HIV-1 LTR into the vector multiple cloning region, the resultant plasmids and pGL4.77[hRlucP/Hygro] were dually digested with NheI and XhoI (New England Biolabs), ligated using ExpressLink™ T4 DNA Ligase (Invitrogen), transformed into One Shot® TOP10 Chemically Competent E. coli (Invitrogen), and selected on LB-agar plates containing 100 μg/ml ampicillin. Clones were picked and DNA isolated using QIAprep® Spin Miniprep Kit (Qiagen) and the inserted fragment was verified by NheI/XhoI digestion followed by electrophoresis using E-Gel® 1.2% agarose (Invitrogen). The resultant plasmid, pGL4.77-LTR, was verified by sequencing at GENEWIZ (South Plainfield, NJ). […] Luciferase activity was quantified using Renilla Luciferase Assay System (Promega, Madison, WI) and results were normalized to the vehicle-treated control.

The test system of data set [2] is HeLa nuclear extracts, HDAC1, HDAC2, HDAC3, HDAC8. As to the kind of experiment: HDAC inhibition assay (fluorometric). Particulars: 10 μM. In kind it is biochemical. On the procedure:
HDAC inhibition was determined using HDAC Fluorometric Activity Assay/Drug Discovery Kit (BIOMOL International, Inc.) according to the manufacturer’s recommendations. HeLa cell nuclear extracts and purified HDACs 1, 2, 3, and 8 were obtained from BIOMOL. Briefly, HDAC inhibitors and test compounds were diluted to 5× concentration in assay buffer in a white, flat-bottom 96-well plate. HDAC samples (purified HDAC or HeLa nuclear extract) were diluted to the desired concentration in assay buffer and added to each well. HeLa extract was employed at a 150-fold dilution, while individual HDACs were tested at 0.3–9 μg/ml. Fluor de Lys™ substrate was diluted to 2× concentration in assay buffer and the HDAC reaction was initiated by addition of substrate to each well followed by incubation for 60 min at room temperature. A final concentration of 0.4% DMSO and 50 μM Fluor de Lys™ substrate was present in all samples. Samples with no enzyme were used as blanks and vehicle-only samples were used as negative controls. HDAC reactions were quenched by adding Fluor de Lys™ developer containing 2 μM trichostatin A. Plates were incubated at room temperature for 15 min prior to reading fluorescence for 0.1 s with an excitation wavelength of 360 nm and emission of 460 nm using a 5 nm slit on a Cary Eclipse Fluorescence Spectrophotometer (Varian, Inc.). […]

Data set [3] can be described thus: Protein binding, human plasma (ultrafiltration). As to conditions: human, plasma, pH 7.4. In kind it is in vitro ADME.
A short description of data set [4]: Protein binding, mouse plasma (ultrafiltration). In kind it is in vitro ADME. As to conditions: mouse, plasma, pH 7.4. On the procedure: Binding of test compound to plasma proteins was estimated by incubation of test compounds with mouse or human plasma. Human plasma was obtained from BioreclamationIVT (Westbury, NY). […] After a 15 min incubation at 37°C, triplicate aliquots of the incubation mixtures were transferred to a Millipore Multiscreen Ultracel-10 filter plate (10 kDa molecular mass cut off, EMD Millipore, Billerica, MA). The plate was centrifuged for 60 min at 3000 × g and 37°C. After centrifugation, aliquots of both the ultrafiltrates as well as the incubation mixtures prior to ultrafiltration were analyzed by LC-MS/MS to quantify the concentrations of test compound and reference compounds.

Data set [5] can be described thus: Pharmacokinetics in CD-1 mice. In kind it is in vivo. As to conditions: mouse, 10 mg/kg, PO. As for the experimental part: All animal studies were performed in compliance with IACUC approved protocols at AAALAC-certified animal facilities. Pharmacokinetics of test compounds were evaluated in CD-1 mice (Charles River Laboratories, Wilmington, MA). Compounds were formulated as a suspension in 0.5% hydroxypropylmethyl cellulose with 0.1% Tween 80 and administered by gavage at a dose of 10 mg/kg. […] Mice were anaesthetized with CO2 followed by terminal exsanguination as per the Guide for the Care and Use of Laboratory Animals. Blood was collected by terminal cardiac puncture at 1, 2, 4, 7, 16, and 24 h post-dose (3 mice per time point), and centrifuged to collect plasma. Brain tissue was collected at the time of blood collection and homogenized in water. The concentrations of test compound in plasma and brain tissue were quantified by liquid chromatography-tandem mass spectrometry (LC-MS/MS). Briefly, the plasma and tissue homogenate samples were treated with an acetonitrile-methanol mixture containing an internal standard that is a close structural analog of the test compounds. The treated plasma and brain homogenate samples were centrifuged and the supernatant was collected and analyzed using electro-spray LC-MS/MS.

Setting [6] is: CD-1, brain, read-out: AUC0-24, brain.
Where [7] appears, read: CD-1, plasma, read-out: AUC0-24, plasma.

These results are taken from article PMC5489165, “Identification of benzazole compounds that induce HIV-1 transcription” (PLoS ONE, 2017).

SMILES strings stand for the structures. Like-named read-outs stand apart in the source and are kept apart here.

Regarding `Nc1ccc2[nH]c(-c3ccc(-c4nc5cc(N)ccc5o4)cc3)nc2c1` [Compound 1, 2-(4-(5-amino-1H-benzimidazol-2-yl)phenyl)benzoxazol-5-amine], the CC50 at 72 h in data set [1] came to 18 ± 6.8 µM. Further, the “Transcription driven by the HIV-1 LTR (in words)” value in the data set on HIV-1 LTR is “did not significantly increase transcription”. For the same compound, the “HDAC inhibitory activity (in words)” value in data set [2] is reported as “no HDAC inhibitory activity”. Besides, the values for the free fraction (fraction unbound) at 15 min, 10 μM in data set [3] and in data set [4] were less than 0.01 and less than 0.03, respectively. Moreover, the figures for the AUC(0-t) in data set [5] (setting [6]) and in data set [5] (setting [7]) were 0.12 µM·h and 2.2 µM·h, respectively. Further, the peak concentration (Cmax) in data set [5] (CD-1, plasma) was found to be 550 nM. The “Cmax, brain” value in data set [5] was 65 nM.

Take `Nc1ccc2[nH]c(-c3ccc(-c4nc5ccc(N)cc5o4)cc3)nc2c1` [Compound 2]: the CC50 at 72 h in data set [1] was greater than 100 µM. Moreover, the “Transcription driven by the HIV-1 LTR (in words)” value with HIV-1 LTR was “did not significantly increase transcription”. Besides, in data set [2], the “HDAC inhibitory activity (in words)” value is reported as “no HDAC inhibitory activity”. Moreover, the fraction unbound at 15 min, 10 μM in data set [3] is less than 0.003; in data set [4], less than 0.025. The values for the AUC(0-t) in data set [5] (setting [6]) and in data set [5] (setting [7]) were 0.054 µM·h and 0.92 µM·h, respectively. In data set [5] (CD-1, plasma), this compound came in with a Cmax of 180 nM. Besides, the “Cmax, brain” value in data set [5] turned out to be 54 nM.
